Results as given in US20260184693A1, “INHIBITORS OF SOLUTE CARRIER FAMILY 6A MEMBER 19 (SLC6A19) AND METHODS OF USE THEREOF” (Maze Therapeutics, Inc., priority 2022, published 2026).

Molecular target: T1, human SLC6A19 (Homo sapiens, UniProt Q695T7)
T1 construct: expressed in transfected cells
T1 sequence (Q695T7 1-634): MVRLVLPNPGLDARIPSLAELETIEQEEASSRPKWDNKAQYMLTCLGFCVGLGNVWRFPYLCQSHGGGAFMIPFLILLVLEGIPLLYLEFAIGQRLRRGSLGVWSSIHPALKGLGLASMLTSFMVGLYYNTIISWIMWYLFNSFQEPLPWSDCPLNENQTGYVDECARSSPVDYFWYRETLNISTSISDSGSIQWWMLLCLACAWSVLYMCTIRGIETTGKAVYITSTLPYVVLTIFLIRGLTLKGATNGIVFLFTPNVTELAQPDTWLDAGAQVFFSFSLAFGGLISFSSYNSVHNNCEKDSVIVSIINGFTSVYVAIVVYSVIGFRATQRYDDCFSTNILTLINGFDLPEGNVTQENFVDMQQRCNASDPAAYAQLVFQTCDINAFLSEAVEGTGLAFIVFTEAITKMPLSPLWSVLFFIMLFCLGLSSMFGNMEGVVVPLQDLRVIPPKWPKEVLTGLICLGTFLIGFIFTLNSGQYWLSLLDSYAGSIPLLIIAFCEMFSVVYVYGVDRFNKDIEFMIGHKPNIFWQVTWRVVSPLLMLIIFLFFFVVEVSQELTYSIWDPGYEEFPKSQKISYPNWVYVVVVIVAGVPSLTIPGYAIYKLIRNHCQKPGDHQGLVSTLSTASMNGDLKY
T1 sequence (Q9HBJ8 15-222 partner): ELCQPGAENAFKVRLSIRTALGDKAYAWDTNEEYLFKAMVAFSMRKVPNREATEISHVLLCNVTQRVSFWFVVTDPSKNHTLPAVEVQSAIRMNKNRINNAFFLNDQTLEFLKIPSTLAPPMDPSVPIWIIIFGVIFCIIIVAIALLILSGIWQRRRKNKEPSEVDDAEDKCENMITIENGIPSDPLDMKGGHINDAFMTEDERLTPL
Experiment: Example B2: 13C6,15N-isoleucine uptake, RapidFire mass spectrometry, in CHO cells with doxycycline-inducible expression of human SLC6A19 and TMEM27
Type: cell-based
Conditions: read-out: SLC6A19_RapidFire Uptake Assay IC50
Protocol: Assay ready vials of CHO cells with doxycycline inducible expression of human SLC6A19 and TMEM27 were thawed, plated in T175 flasks containing DMEM/F12 media, 10% FBS, 100 Penicillin-Streptomycin, 1× UltraGlutamate, 1 mM Sodium Pyruvate, Sodium Bicarbonate (7.5 mL of 7.5% solution in 500 mL media final), […] Blasticidin, 150 µg/mL Hygromycin B Gold, and 500 µg/mL G418, and incubated (humidified, 37° C. with […]) for 48 hours. Media was then removed, flasks were washed with 20 mL of DPBS, and 5 mL of TryμLE™ Express was added to each flask to initiate cell dissociation. After 5 minutes, 10 mL of cell culture media was added to each flask and mixed. The cell suspension was collected and centrifuged for 5 minutes at 200×g. The supernatant was removed, and the pellet was resuspended in 10 mL of cell culture media. Resuspended cells were counted using a Vi-Cell. 30 μL/well (20,000 cells/well) of cell suspension was added to Poly-D-Lysine 384-well black/clear plates. Plates were incubated (humidified, 37° C. with 5% CO2) for 24 hours. To induce expression of human SLC6A19 and TMEM27, 10 μL of assay culture media containing 4 μg/mL doxycycline was added to each well. Assay plates were then incubated (humidified, 37° C. with 5% CO2) overnight. After incubation, the media was removed, and wells were washed 3 times with 40 μL of warmed DPBS. […] All compounds were plated in a duplicate 10-point dilution series that consisted of 2-fold dilutions. The plates were incubated (humidified, 37° C. with 5% CO2) with compound for 20 minutes. Afterwards, 20 μL/well of 2 mM 13C6,15N-1-isoleucine was added to each well and plates were incubated again (humidified, 37° C. with 5% CO2) for another 20 minutes. Assay buffer was then removed, and plates were washed. 70 μL/well of stop solution (75% acetonitrile, 25% HPLC grade water, 250 nM 1-leucine-1-13 C (RapidFire standard)) was added to each well. The plates were sealed and then placed in a −20° C. freezer for 20 minutes. The plates were thawed at room temperature for 20 minutes and then centrifuge for 20 minutes at 3000 rpm. Using an ABSciex API4000 mass spectrometer, processed samples were loaded onto the graphitic carbon SPE-column. The time for aspiration, load/wash, elution and re-equilibration time was 600, 1500, 3000 and 500 milliseconds, respectively. Peak areas were calculated using RapidFire Integrator software.

Row | Structure (SMILES) | IC50 [nM]
1 | CN(C(=O)NCc1cc2cc(Cl)ccc2[nH]1)[C@@H]1CCCN(C(=O)c2ccccc2)C1 [Compound 52, (R)-1-(1-benzoylpiperidin-3-yl)-3-((5-chloro-1H-indol-2-yl)methyl)-1-methylurea] | 366
2 | CC(=O)NCC(=O)N1CCC[C@@H](N(C)C(=O)NCc2cc3cc(Cl)ccc3[nH]2)C1 [Compound 53, (R)-N-(2-(3-(3-((5-chloro-1H-indol-2-yl)methyl)-1-methylureido)piperidin-1-yl)-2-oxoethyl)acetamide] | 1630
3 | CN(C(=O)NCc1cc2cc(Cl)ccc2[nH]1)[C@@H]1CCCN(C(=O)c2ccn(C)n2)C1 [Compound 54, (R)-3-((5-chloro-1H-indol-2-yl)methyl)-1-methyl-1-(1-(1-methyl-1H-pyrazole-3-carbonyl)piperidin-3-yl)urea] | 401
4 | CN(C(=O)NCc1cc2cc(Cl)ccc2[nH]1)[C@@H]1CCCN(C(=O)c2cnn(C)c2)C1 [Compound 55, (R)-3-((5-chloro-1H-indol-2-yl)methyl)-1-methyl-1-(1-(1-methyl-1H-pyrazole-4-carbonyl)piperidin-3-yl)urea] | 571
5 | CN(C(=O)NCc1cc2cc(Cl)ccc2[nH]1)[C@@H]1CCCN(C(=O)CNC(=O)C(F)(F)F)C1 [Compound 56, (R)-N-(2-(3-(3-((5-chloro-1H-indol-2-yl)methyl)-1-methylureido)piperidin-1-yl)-2-oxoethyl)-2,2,2-trifluoroacetamide] | 2460
6 | CN(C(=O)NCc1cc2cc(Cl)ccc2[nH]1)[C@@H]1CCCN(C(=O)C2(C(F)(F)F)CC2)C1 [Compound 57, (R)-3-((5-chloro-1H-indol-2-yl)methyl)-1-methyl-1-(1-(1-(trifluoromethyl)cyclopropane-1-carbonyl)piperidin-3-yl)urea] | 8640
7 | Cc1[nH]cnc1C(=O)N1CCC[C@@H](N(C)C(=O)NCc2cc3cc(Cl)ccc3[nH]2)C1 [Compound 58, (R)-3-((5-chloro-1H-indol-2-yl)methyl)-1-methyl-1-(1-(5-methyl-1H-imidazole-4-carbonyl)piperidin-3-yl)urea] | 4050
8 | CN(C(=O)NCc1cc2cc(Cl)ccc2[nH]1)[C@@H]1CCCN(C(=O)Cc2ccn[nH]2)C1 [Compound 59, (R)-1-(1-(2-(1H-pyrazol-5-yl)acetyl)piperidin-3-yl)-3-((5-chloro-1H-indol-2-yl)methyl)-1-methylurea] | 529
9 | CN(C(=O)NCc1cc2cc(Cl)ccc2[nH]1)[C@@H]1CCCN(C(=O)C2CCC(=O)N2)C1 (stereo partly drawn) [Compound 60, 3-((5-chloro-1H-indol-2-yl)methyl)-1-methyl-1-((3R)-1-(5-oxopyrrolidine-2-carbonyl)piperidin-3-yl)urea] | 7780
10 | CN(C(=O)NCc1cc2cc(Cl)ccc2[nH]1)[C@@H]1CCCN(C(=O)C2CCCO2)C1 (stereo partly drawn) [Compound 61, 3-((5-chloro-1H-indol-2-yl)methyl)-1-methyl-1-((3R)-1-(tetrahydrofuran-2-carbonyl)piperidin-3-yl)urea] | 542
11 | CN(C(=O)NCc1cc2cc(Cl)ccc2[nH]1)[C@@H]1CCCN(C(=O)Cc2cnccn2)C1 [Compound 62, (R)-3-((5-chloro-1H-indol-2-yl)methyl)-1-methyl-1-(1-(2-(pyrazin-2-yl)acetyl)piperidin-3-yl)urea] | 1350
12 | CN(C(=O)NCc1cc2cc(Cl)ccc2[nH]1)[C@@H]1CCCN(C(=O)c2ccc(O)cc2F)C1 [Compound 63, (R)-3-((5-chloro-1H-indol-2-yl)methyl)-1-(1-(2-fluoro-4-hydroxybenzoyl)piperidin-3-yl)-1-methylurea] | 935
13 | CN(C(=O)NCc1cc2cc(Cl)ccc2[nH]1)[C@@H]1CCCN(C(=O)[C@H]2C[C@H](O)C2)C1 [Compound 64, trans-(R)-3-((5-chloro-1H-indol-2-yl)methyl)-1-(1-(3-hydroxycyclobutane-1-carbonyl)piperidin-3-yl)-1-methylurea] | 651
14 | Cc1noc(CC(=O)N2CCC[C@@H](N(C)C(=O)NCc3cc4cc(Cl)ccc4[nH]3)C2)n1 [Compound 65, (R)-3-((5-chloro-1H-indol-2-yl)methyl)-1-methyl-1-(1-(2-(3-methyl-1,2,4-oxadiazol-5-yl)acetyl)piperidin-3-yl)urea] | 973
15 | CN(C(=O)NCc1cc2cc(Cl)ccc2[nH]1)[C@@H]1CCCN(C(=O)Cn2cccnc2=O)C1 [Compound 66, (R)-3-((5-chloro-1H-indol-2-yl)methyl)-1-methyl-1-(1-(2-(2-oxopyrimidin-1(2H)-yl)acetyl)piperidin-3-yl)urea] | 4240
16 | CN(C(=O)NCc1cc2cc(Cl)ccc2[nH]1)[C@@H]1CCCN(C(=O)Cc2cccnc2)C1 [Compound 67, (R)-3-((5-chloro-1H-indol-2-yl)methyl)-1-methyl-1-(1-(2-(pyridin-3-yl)acetyl)piperidin-3-yl)urea] | 887
17 | CN(C(=O)NCc1cc2cc(Cl)ccc2[nH]1)[C@@H]1CCCN(C(=O)Cc2ccccn2)C1 [Compound 68, (R)-3-((5-chloro-1H-indol-2-yl)methyl)-1-methyl-1-(1-(2-(pyridin-2-yl)acetyl)piperidin-3-yl)urea] | 417
18 | CN(C(=O)NCc1cc2cc(Cl)ccc2[nH]1)[C@@H]1CCCN(C(=O)c2onc3ccccc23)C1 [Compound 69, (R)-1-(1-(benzo[c]isoxazole-3-carbonyl)piperidin-3-yl)-3-((5-chloro-1H-indol-2-yl)methyl)-1-methylurea] | > 2810
19 | CC(C(=O)N1CCC[C@@H](N(C)C(=O)NCc2cc3cc(Cl)ccc3[nH]2)C1)n1cncn1 (stereo partly drawn) [Compound 70, 1-((3R)-1-(2-(1H-1,2,4-triazol-1-yl)propanoyl)piperidin-3-yl)-3-((5-chloro-1H-indol-2-yl)methyl)-1-methylurea] | 3060
20 | CCS(=O)(=O)CC(=O)N1CCC[C@@H](N(C)C(=O)NCc2cc3cc(Cl)ccc3[nH]2)C1 [Compound 71, (R)-3-((5-chloro-1H-indol-2-yl)methyl)-1-(1-(2-(ethylsulfonyl)acetyl)piperidin-3-yl)-1-methylurea] | 6390
21 | CN(C(=O)NCc1cc2cc(Cl)ccc2[nH]1)[C@@H]1CCCN(C(=O)c2ccc3ocnc3c2)C1 [Compound 72, (R)-1-(1-(benzo[d]oxazole-5-carbonyl)piperidin-3-yl)-3-((5-chloro-1H-indol-2-yl)methyl)-1-methylurea] | 1370
22 | CN(C(=O)NCc1cc2cc(Cl)ccc2[nH]1)[C@@H]1CCCN(C(=O)CCNC(N)=O)C1 [Compound 73, (R)-3-((5-chloro-1H-indol-2-yl)methyl)-1-methyl-1-(1-(3-ureidopropanoyl)piperidin-3-yl)urea] | 897
23 | CN(C(=O)NCc1cc2cc(Cl)ccc2[nH]1)[C@@H]1CCCN(C(=O)c2cccn3cnnc23)C1 [Compound 74, (R)-1-(1-([1,2,4]triazolo[4,3-a]pyridine-8-carbonyl)piperidin-3-yl)-3-((5-chloro-1H-indol-2-yl)methyl)-1-methylurea] | 2540
24 | CN(C(=O)NCc1cc2cc(Cl)ccc2[nH]1)[C@@H]1CCCN(C(=O)C2CCC(=O)C2)C1 (stereo partly drawn) [Compound 75, 3-((5-chloro-1H-indol-2-yl)methyl)-1-methyl-1-((3R)-1-(3-oxocyclopentane-1-carbonyl)piperidin-3-yl)urea] | 1750
